Assay results reported in patent US20250277012A1 (Protagonist Therapeutics, Inc., priority 2021, published 2025).
Where two headings read alike, the source gives them in different places. Positions of bridges follow the written chain, without caps; N, C: chain ends. Non-standard residues stand in square brackets, D forms with d. Residues, ends and D or L forms follow the SMILES beside them. Groups on a side chain read outwards from the residue. *: point of attachment. X1 = C[N+](C)(CCNC(=O)CCCCCCCCCCCCCCCCC(=O)O)CC(=O)*; Bip = N[C@@H](Cc1ccc(-c2ccccc2)cc1)C(=O)O; C18 diacid = O=C(O)CCCCCCCCCCCCCCCCC(=O)*; Dip = N[C@H](C(=O)O)C(c1ccccc1)c1ccccc1; Palmitoyl = CCCCCCCCCCCCCCCC(=O)*; β3hF = N[C@H](CC(=O)O)Cc1ccccc1; NMeK = CN[C@@H](CCCCN)C(=O)O; αMeK = C[C@](N)(CCCCN)C(=O)O; Nicotinoyl = O=C(c1cccnc1)*; Isovaleryl = CC(C)CC(=O)*; Dap = NC[C@H](N)C(=O)O; AEEA = NCCOCCOCC(=O)O; Ahx = NCCCCCC(=O)O

What was measured:
ferroportin [1] = biological target: T1, ferroportin (Homo sapiens, UniProt Q9NP59); assay: FPN activity assay: ferroportin-GFP internalization/degradation in HEK293 cells; format: cell-based; set-up: expressed in transfected cells; conditions: read-out: FPN IC50
T1 sequence (Q9NP59 1-571): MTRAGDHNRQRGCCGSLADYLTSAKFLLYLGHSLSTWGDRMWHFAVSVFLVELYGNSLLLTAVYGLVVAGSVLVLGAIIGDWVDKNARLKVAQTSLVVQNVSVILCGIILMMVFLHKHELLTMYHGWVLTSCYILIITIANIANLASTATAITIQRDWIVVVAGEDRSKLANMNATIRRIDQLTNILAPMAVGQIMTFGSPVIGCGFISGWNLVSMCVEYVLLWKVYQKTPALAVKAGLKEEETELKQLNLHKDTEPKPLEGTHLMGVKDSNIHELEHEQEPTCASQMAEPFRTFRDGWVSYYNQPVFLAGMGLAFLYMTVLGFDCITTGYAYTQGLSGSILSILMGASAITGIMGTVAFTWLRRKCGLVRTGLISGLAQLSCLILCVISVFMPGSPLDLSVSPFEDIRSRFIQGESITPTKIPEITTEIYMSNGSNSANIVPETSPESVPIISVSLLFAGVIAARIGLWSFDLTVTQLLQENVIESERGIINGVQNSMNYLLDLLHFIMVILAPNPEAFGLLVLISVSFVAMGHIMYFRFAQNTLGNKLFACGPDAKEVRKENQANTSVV
Method: Following internalization, the ferroporin protein is degraded.
A retro inverse peptide is a peptide with a reversed sequence in all D amino acids. An example is that Hy-Glu-Thr-His-NH2 becomes Hy-DHis-DThr-DGlu-NH2. The EC50 of these reference compounds for ferroportin internalization/degradation was determined according to the FPN activity assay described above. These peptides served as control standards.

ferroportin [2] = biological target: T1, ferroportin; assay: T47D cell-based ferroportin internalization assay in presence of mouse serum albumin (MSA); set-up: a human breast carcinoma adherent cell line which endogenously expresses ferroportin; host or cells: T47D
Method in brief: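 Peptide potency for inducing ferroportin internalization was measured in T47D cells in the presence of serum albumin. Cells grown in RPMI with fetal bovine serum were seeded in 96-well plates at 80-100 k cells per well in 100 ul and rested overnight. Dilution series of test peptides were preincubated 30 min at room temperature, then added to the cells after the medium was aspirated.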

[3] = ferroportin-GFP internalization/degradation, HEK293 cells, Table 6E
[4] = T47D internalization assay in presence of mouse serum albumin (MSA), Table 6E

DC50 (ferroportin [1]; [3]) [nM]	IC50 (ferroportin [2]; [4]) [nM]	also measured	SMILES
10 to 100	10 to 100	–	CC(C)CC(=O)N[C@@H](CCC(=O)O)C(=O)N[C@H](C(=O)N[C@@H](Cc1c[nH]cn1)C(=O)N[C@H](C(=O)N1CCC[C@H]1C(=O)N[C@H]1CSSC[C@@H](C(=O)N[C@@](C)(CCCCNC(=O)COCCOCCNC(=O)COCCOCCNC(=O)[C@H](CN)NC(=O)CCCCCCCCCCCCCCCCC(=O)O)C(=O)N[C@H](CC(=O)N[C@H](CCCCN)C(N)=O)Cc2ccccc2)NC1=O)C(c1ccccc1)c1ccccc1)[C@@H](C)O [compound 302] (Isovaleryl-ETH[Dip]PCC[αMeK]([AEEA-AEEA-Dap-C18 diacid])[β3hF][dK]-NH2; disulfide 6-7)
10 to 100	10 to 100	–	CC(C)CC(=O)N[C@@H](CCC(=O)O)C(=O)N[C@H](C(=O)N[C@@H](Cc1c[nH]cn1)C(=O)N[C@H](C(=O)N1CCC[C@H]1C(=O)N[C@H]1CSSC[C@@H](C(=O)N(C)[C@@H](CCCCNC(=O)COCCOCCNC(=O)COCCOCCNC(=O)[C@H](CN)NC(=O)CCCCCCCCCCCCCCCCC(=O)O)C(=O)N[C@H](CC(N)=O)Cc2ccccc2)NC1=O)C(c1ccccc1)c1ccccc1)[C@@H](C)O [compound 295] (Isovaleryl-ETH[Dip]PCC[NMeK]([AEEA-AEEA-Dap-C18 diacid])[β3hF]-NH2; disulfide 6-7)
–	–	DC50 (ferroportin [1]; ferroportin-GFP HEK293 cells, at least 18 hours): 10 to 100 nM; IC50 (ferroportin [2]; T47D cells, 0.5% mouse serum albumin, 1 hr incubation): 10 to 100 nM	CC[C@H](C)[C@@H]1NC(=O)[C@@H](NC(=O)[C@@H]2CCCN2C(=O)[C@@H](NC(=O)[C@H](Cc2c[nH]cn2)NC(=O)[C@@H](NC(=O)[C@H](CCC(=O)O)NC(=O)CC(C)C)[C@@H](C)O)C(c2ccccc2)c2ccccc2)CSSC[C@@H](C(=O)N[C@H](CC(=O)N[C@@H](CCCCNC(=O)COCCOCCNC(=O)COCCOCCNC(=O)CCCCCNC(=O)CCCCCCCCCCCCCCCCC(=O)O)C(=O)N[C@H](CCCCN)C(N)=O)Cc2ccccc2)NC1=O [Compd 27] (Isovaleryl-ETH[Dip]PCIC[β3hF]K([AEEA-AEEA-Ahx-C18 diacid])[dK]-NH2; disulfide 6-8)
10 to 100	10 to 100	–	C[C@@H](O)[C@H](NC(=O)[C@H](CCC(=O)O)NC(=O)c1cccnc1)C(=O)N[C@@H](Cc1c[nH]cn1)C(=O)N[C@H](C(=O)N1CCC[C@H]1C(=O)N[C@H]1CSSC[C@@H](C(=O)N(C)[C@@H](CCCCNC(=O)COCCOCCNC(=O)COCCOCCNC(=O)[C@H](CN)NC(=O)CCCCCCCCCCCCCCCCC(=O)O)C(=O)N[C@H](CC(=O)N[C@H](CCCCN)C(N)=O)Cc2ccccc2)NC1=O)C(c1ccccc1)c1ccccc1 [compound 299] (Nicotinoyl-ETH[Dip]PCC[NMeK]([AEEA-AEEA-Dap-C18 diacid])[β3hF][dK]-NH2; disulfide 6-7)
10 to 100	1 to 10	–	CCCCCCCCCCCCCCCC(=O)NCCCCCC(=O)NCCCC[C@@H](C(=O)N[C@H](CC(=O)N[C@H](CCCCN)C(N)=O)Cc1ccccc1)N(C)C(=O)[C@@H]1CSSC[C@H](NC(=O)[C@@H]2CCCN2C(=O)[C@@H](NC(=O)[C@H](Cc2cnc[nH]2)NC(=O)[C@@H](NC(=O)[C@H](CCC(=O)OC)NC(=O)CC(C)C)[C@@H](C)O)C(c2ccccc2)c2ccccc2)C(=O)N1 [compound 307] (Isovaleryl-E(OMe)TH[Dip]PCC[NMeK]([Ahx-Palmitoyl])[β3hF][dK]-NH2; disulfide 6-7)
–	–	DC50 (ferroportin [1]; Table 6E, ferroportin-GFP internalization/degradation, at least 18 hours incubation): 10 to 100 nM; IC50 (ferroportin [2]; Table 6E, T47D internalization assay with MSA): 10 to 100 nM	CC(C)CC(=O)N[C@@H](CCC(=O)O)C(=O)N[C@H](C(=O)N[C@@H](Cc1c[nH]cn1)C(=O)N[C@H](C(=O)N1CCC[C@H]1C(=O)N[C@H]1CSSC[C@@H](C(=O)N(C)[C@@H](CCCCNC(=O)CCCCCNC(=O)C[N+](C)(C)CCNC(=O)CCCCCCCCCCCCCCCCC(=O)O)C(=O)N[C@@H](Cc2ccc(-c3ccccc3)cc2)C(=O)N[C@H](CCCCN)C(N)=O)NC1=O)C(c1ccccc1)c1ccccc1)[C@@H](C)O [compound 183] (Isovaleryl-ETH[Dip]PCC[NMeK]([Ahx-X1])[Bip][dK]-NH2; disulfide 6-7)
